Results: patent US20260273110A1, “Radiolabeled Fibroblast Activation Protein Inhibitors and Methods of Making Same” (REGENTS OF THE UNIVERSITY OF MICHIGAN, priority 2023, published 2026)
Where two headings read alike, the source gives them in different places.

Columns and labels:
FAP = biological target: T1, FAP (Homo sapiens, UniProt Q12884); settings: cited from earlier work; for tumor to kidney ratio: [^177Lu] agent
T1 sequence (Q12884 1-760): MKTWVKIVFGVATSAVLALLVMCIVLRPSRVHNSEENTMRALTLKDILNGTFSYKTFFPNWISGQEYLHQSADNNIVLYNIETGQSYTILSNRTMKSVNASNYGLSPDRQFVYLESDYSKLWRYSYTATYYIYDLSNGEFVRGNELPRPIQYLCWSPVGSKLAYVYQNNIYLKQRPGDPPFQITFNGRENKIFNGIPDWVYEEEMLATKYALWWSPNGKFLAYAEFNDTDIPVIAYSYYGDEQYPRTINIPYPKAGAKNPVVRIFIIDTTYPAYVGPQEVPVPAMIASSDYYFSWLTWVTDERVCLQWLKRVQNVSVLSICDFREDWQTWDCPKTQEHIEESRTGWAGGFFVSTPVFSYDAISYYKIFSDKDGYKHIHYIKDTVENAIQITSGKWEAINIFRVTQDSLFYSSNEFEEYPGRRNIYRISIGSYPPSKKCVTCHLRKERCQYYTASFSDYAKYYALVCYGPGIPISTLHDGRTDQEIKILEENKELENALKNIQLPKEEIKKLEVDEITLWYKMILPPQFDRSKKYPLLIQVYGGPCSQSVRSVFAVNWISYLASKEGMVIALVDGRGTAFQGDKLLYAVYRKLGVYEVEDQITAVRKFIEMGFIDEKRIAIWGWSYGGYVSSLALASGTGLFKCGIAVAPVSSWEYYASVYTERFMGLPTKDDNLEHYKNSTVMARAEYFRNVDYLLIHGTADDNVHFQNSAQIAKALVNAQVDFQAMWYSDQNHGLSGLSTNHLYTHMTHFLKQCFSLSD

[1] = Ib-3 uptake and dosimetry studies in rats; human estimated dosimetry (OLINDA/EXM 2.0); assay type: in vivo, Sprague-Dawley rats; settings: estimates of human dosimetry from rat distribution data
Procedure: Uptake and dosimetry studies of (S)—N-(2-(2-cyanopyrrolidin-1-yl)-2-oxoethyl)-6-fluroquinoline-4-carboxamide (Ib-3) were performed in Sprague-Dawley rats (n=4, 2 males, 2 females) at 10, 20, 60, and 120 min. Rats were anesthetized with isoflurane, and (S)—N-(2-(2-cyanopyrrolidin-1-yl)-2-oxoethyl)-6-fluroquinoline-4-carboxamide (Ib-3) was administered via tail vein injections. At the appropriate time points, animals were euthanized, and their tissues procured for measuring radioactivity. Radioactivity was measured in a well counter and expressed as decay-corrected percentage injected dose per gram of tissue. Radiation dosimetry was calculated from the distribution data and was used to determine estimates of human dosimetry with OLINDA/EXM 2.0 software, or equivalent.
Human estimated dosimetry is given in Table 1, below, in mSv/MBq injected for each organ for males, females, and gender averaged: […]

CN(CCCN1CCN(C(=O)CN2CCN(CC(=O)O)CCN(CC(=O)O)CCN(CC(=O)O)CC2)CC1)c1ccc2nccc(C(=O)NCC(=O)N3CC(F)(F)C[C@H]3C#N)c2c1 [FAPI-46]
tumor to background ratio relative to FAP-2286 (FAP; [^68Ga] agent, early time points): 3-5 times | tumor to kidney ratio (FAP; 3 h): 21.0 | tumor to kidney ratio (FAP; 24 hours): 12.7 | tumor to kidney ratio (FAP; 72 h): 8

N#C[C@@H]1CCCN1C(=O)CNC(=O)c1ccnc2ccc([18F])cc12 [Ib-3, (S)—N-(2-(2-cyanopyrrolidin-1-yl)-2-oxoethyl)-6-[18F]fluoroquinoline-4-carboxamide]
Human estimated dosimetry: Adrenals ([1]; Females): 1.02E−02 mSv/MBq | Human estimated dosimetry: Brain ([1]; Females): 3.83E−03 mSv/MBq | Human estimated dosimetry: Breasts ([1]; Females): 1.23E−02 mSv/MBq | Human estimated dosimetry: Effective Dose ([1]; Females): 1.39E−02 mSv/MBq | Human estimated dosimetry: Esophagus ([1]; Females): 1.29E−02 mSv/MBq | Human estimated dosimetry: Eyes ([1]; Females): 6.79E−03 mSv/MBq | Human estimated dosimetry: Gallbladder Wall ([1]; Females): 1.64E−02 mSv/MBq | Human estimated dosimetry: Heart Wall ([1]; Females): 1.46E−02 mSv/MBq | Human estimated dosimetry: Kidneys ([1]; Females): 1.48E−02 mSv/MBq | Human estimated dosimetry: Left colon ([1]; Females): 2.18E−02 mSv/MBq | Human estimated dosimetry: Liver ([1]; Females): 9.11E−03 mSv/MBq | Human estimated dosimetry: Lungs ([1]; Females): 9.36E−03 mSv/MBq | Human estimated dosimetry: Osteogenic Cells ([1]; Females): 1.90E−02 mSv/MBq | Human estimated dosimetry: Ovaries ([1]; Females): 1.40E−02 mSv/MBq | Human estimated dosimetry: Pancreas ([1]; Females): 1.19E−02 mSv/MBq | Human estimated dosimetry: Rectum ([1]; Females): 1.94E−02 mSv/MBq | Human estimated dosimetry: Red Marrow ([1]; Females): 1.58E−02 mSv/MBq | Human estimated dosimetry: Right colon ([1]; Females): 1.99E−02 mSv/MBq | Human estimated dosimetry: Salivary Glands ([1]; Females): 1.34E−02 mSv/MBq | Human estimated dosimetry: Small Intestine ([1]; Females): 2.75E−02 mSv/MBq | Human estimated dosimetry: Spleen ([1]; Females): 1.00E−02 mSv/MBq | Human estimated dosimetry: Stomach Wall ([1]; Females): 1.69E−02 mSv/MBq | Human estimated dosimetry: Thymus ([1]; Females): 1.50E−02 mSv/MBq | Human estimated dosimetry: Thyroid ([1]; Females): 1.38E−02 mSv/MBq | Human estimated dosimetry: Total Body ([1]; Females): 1.49E−02 mSv/MBq | Human estimated dosimetry: Urinary Bladder Wall ([1]; Females): 3.42E−02 mSv/MBq | Human estimated dosimetry: Uterus ([1]; Females): 1.49E−02 mSv/MBq | Human estimated dosimetry: Adrenals ([1]; Gender Averaged): 9.65E−03 mSv/MBq | Human estimated dosimetry: Brain ([1]; Gender Averaged): 3.31E−03 mSv/MBq | Human estimated dosimetry: Breasts ([1]; Gender Averaged): 1.23E−02 mSv/MBq | Human estimated dosimetry: Effective Dose ([1]; Gender Averaged): 1.25E−02 mSv/MBq | Human estimated dosimetry: Esophagus ([1]; Gender Averaged): 1.21E−02 mSv/MBq | Human estimated dosimetry: Eyes ([1]; Gender Averaged): 6.09E−03 mSv/MBq | Human estimated dosimetry: Gallbladder Wall ([1]; Gender Averaged): 1.49E−02 mSv/MBq | Human estimated dosimetry: Heart Wall ([1]; Gender Averaged): 1.26E−02 mSv/MBq | Human estimated dosimetry: Kidneys ([1]; Gender Averaged): 1.52E−02 mSv/MBq | Human estimated dosimetry: Left colon ([1]; Gender Averaged): 1.99E−02 mSv/MBq | Human estimated dosimetry: Liver ([1]; Gender Averaged): 8.47E−03 mSv/MBq | Human estimated dosimetry: Lungs ([1]; Gender Averaged): 8.27E−03 mSv/MBq | Human estimated dosimetry: Osteogenic Cells ([1]; Gender Averaged): 1.84E−02 mSv/MBq | Human estimated dosimetry: Ovaries ([1]; Gender Averaged): 1.40E−02 mSv/MBq | Human estimated dosimetry: Pancreas ([1]; Gender Averaged): 1.10E−02 mSv/MBq | Human estimated dosimetry: Prostate ([1]; Gender Averaged): 1.66E−02 mSv/MBq | Human estimated dosimetry: Rectum ([1]; Gender Averaged): 1.78E−02 mSv/MBq | Human estimated dosimetry: Red Marrow ([1]; Gender Averaged): 1.43E−02 mSv/MBq | Human estimated dosimetry: Right colon ([1]; Gender Averaged): 1.82E−02 mSv/MBq | Human estimated dosimetry: Salivary Glands ([1]; Gender Averaged): 1.26E−02 mSv/MBq | Human estimated dosimetry: Small Intestine ([1]; Gender Averaged): 2.59E−02 mSv/MBq | Human estimated dosimetry: Spleen ([1]; Gender Averaged): 9.10E−03 mSv/MBq | Human estimated dosimetry: Stomach Wall ([1]; Gender Averaged): 1.55E−02 mSv/MBq | Human estimated dosimetry: Testes ([1]; Gender Averaged): 7.86E−03 mSv/MBq | Human estimated dosimetry: Thymus ([1]; Gender Averaged): 1.34E−02 mSv/MBq | Human estimated dosimetry: Thyroid ([1]; Gender Averaged): 1.29E−02 mSv/MBq | Human estimated dosimetry: Total Body ([1]; Gender Averaged): 1.37E−02 mSv/MBq | Human estimated dosimetry: Urinary Bladder Wall ([1]; Gender Averaged): 4.15E−02 mSv/MBq | Human estimated dosimetry: Uterus ([1]; Gender Averaged): 1.49E−02 mSv/MBq | Human estimated dosimetry: Adrenals ([1]; Males): 9.10E−03 mSv/MBq | Human estimated dosimetry: Brain ([1]; Males): 2.79E−03 mSv/MBq | Human estimated dosimetry: Effective Dose ([1]; Males): 1.10E−02 mSv/MBq | Human estimated dosimetry: Esophagus ([1]; Males): 1.13E−02 mSv/MBq | Human estimated dosimetry: Eyes ([1]; Males): 5.39E−03 mSv/MBq | Human estimated dosimetry: Gallbladder Wall ([1]; Males): 1.33E−02 mSv/MBq | Human estimated dosimetry: Heart Wall ([1]; Males): 1.06E−02 mSv/MBq | Human estimated dosimetry: Kidneys ([1]; Males): 1.56E−02 mSv/MBq | Human estimated dosimetry: Left colon ([1]; Males): 1.80E−02 mSv/MBq | Human estimated dosimetry: Liver ([1]; Males): 7.83E−03 mSv/MBq | Human estimated dosimetry: Lungs ([1]; Males): 7.17E−03 mSv/MBq | Human estimated dosimetry: Osteogenic Cells ([1]; Males): 1.78E−02 mSv/MBq | Human estimated dosimetry: Pancreas ([1]; Males): 1.00E−02 mSv/MBq | Human estimated dosimetry: Prostate ([1]; Males): 1.66E−02 mSv/MBq | Human estimated dosimetry: Rectum ([1]; Males): 1.62E−02 mSv/MBq | Human estimated dosimetry: Red Marrow ([1]; Males): 1.27E−02 mSv/MBq | Human estimated dosimetry: Right colon ([1]; Males): 1.65E−02 mSv/MBq | Human estimated dosimetry: Salivary Glands ([1]; Males): 1.17E−02 mSv/MBq | Human estimated dosimetry: Small Intestine ([1]; Males): 2.42E−02 mSv/MBq | Human estimated dosimetry: Spleen ([1]; Males): 8.20E−03 mSv/MBq | Human estimated dosimetry: Stomach Wall ([1]; Males): 1.40E−02 mSv/MBq | Human estimated dosimetry: Testes ([1]; Males): 7.86E−03 mSv/MBq | Human estimated dosimetry: Thymus ([1]; Males): 1.18E−02 mSv/MBq | Human estimated dosimetry: Thyroid ([1]; Males): 1.20E−02 mSv/MBq | Human estimated dosimetry: Total Body ([1]; Males): 1.25E−02 mSv/MBq | Human estimated dosimetry: Urinary Bladder Wall ([1]; Males): 4.87E−02 mSv/MBq
